# In PMC12947280, “An Antifungal with a Novel Mechanism of Action Discovered via Resistance Gene-Guided Genome Mining” (ACS Central Science, 2026):
# Experiments:
# A. fumigatus ALS = A. fumigatus ALS (Aspergillus fumigatus, UniProt Q4WXQ3); experiment: ALS biochemical assay (AfALS)
# Protocol: ALS biochemical assay (AfALS)
# Aspergillus fumigatus acetohydroxyacid synthase (AfILV2) lacking the N-terminal mitochondrial-targeting sequence (amino acids 112-752) was overproduced and isolated from E. coli as an N-terminally His6-tagged protein. Assays (50 µL final volume) contained 200 nM His6-AfALS, 8 mM pyruvate, 1 mM thiamine pyrophosphate, and 10 µM flavin adenine dinucleotide, 10 mM MgCl2, 1 mM DTT, 1% DMSO (± inhibitor) in 200 mM KH2PO4 buffer at pH
# 7.5. Following a 30 min pre-incubation of the enzyme and inhibitor in the reaction mixture at room temperature, reactions were initiated with the addition of pyruvate. AfALS assays were carried out at 30 °C for 120 min. The reaction was quenched with the addition of 5 µL of 10% H2SO4 (v/v in deionized water). Reactions were incubated at 60 °C at incubating microplate shaker for 15 min to convert the product of the ALS reaction, acetolactate, to acetoin.
# Subsequently, the concentration of acetoin was determined by the addition of 7.5 µL 6 M NaOH, 25 µL 0.5% creatine (w/v in deionized water), and 25 µL 4% 1-naphthol (w/v in 2.5 M NaOH).
# This mixture was incubated at 60 °C in an incubating microplate shaker for 15 min. 40 µL of this reaction mixture was transferred to a half area UV-star 96-well plate (Grenier) and the absorbance at 525 nm was measured on a Spark multimode plate reader (Tecan). The percent inhibition was calculated by the comparison of the signal to DMSO (0% inhibition) and no enzyme (100% inhibition) controls. IC50 values were calculated from the dose response curves using Prism 9 (four parameter, variable slope). […]
# (amino acids 58-687) was codon optimized for expression in E. coli and synthesized by […]
# ScALS = target: T1, ScALS (Saccharomyces cerevisiae, UniProt P07342); experiment: Intact protein mass spectrometry; format: binding; settings: 10 μM, 30 min
# T1 construct: made in house; host or cells: E. coli BL21 (DE3), pET28a-ScILV2
# T1 sequence (P07342 58-687): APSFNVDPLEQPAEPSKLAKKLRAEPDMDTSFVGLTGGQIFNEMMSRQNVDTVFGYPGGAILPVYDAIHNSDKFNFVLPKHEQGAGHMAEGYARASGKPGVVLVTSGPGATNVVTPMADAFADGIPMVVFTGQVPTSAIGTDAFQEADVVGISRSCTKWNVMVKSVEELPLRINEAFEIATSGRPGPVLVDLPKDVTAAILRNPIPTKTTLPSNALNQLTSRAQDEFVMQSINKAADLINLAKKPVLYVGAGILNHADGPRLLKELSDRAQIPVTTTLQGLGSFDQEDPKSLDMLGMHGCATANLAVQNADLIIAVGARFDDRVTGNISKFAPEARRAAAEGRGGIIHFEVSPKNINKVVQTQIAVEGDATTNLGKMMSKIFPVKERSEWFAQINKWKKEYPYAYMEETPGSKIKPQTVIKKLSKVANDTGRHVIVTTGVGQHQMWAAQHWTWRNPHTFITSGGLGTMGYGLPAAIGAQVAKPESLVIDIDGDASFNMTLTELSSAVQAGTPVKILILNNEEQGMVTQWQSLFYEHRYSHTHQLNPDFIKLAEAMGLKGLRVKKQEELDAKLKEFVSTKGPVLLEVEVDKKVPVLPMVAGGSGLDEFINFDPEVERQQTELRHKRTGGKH
# Description: We next characterized the structural basis for binding of 1 to ALS. Given the strained structure and the observed tight binding kinetics, we hypothesized that 1 may be binding covalently. Analysis of ALS from both AfALS and ScALS by intact protein mass spectrometry yielded traces with multiple proteoforms for both proteins. […] Limited proteolysis followed by peptide mapping localized the covalent attachment to the 239[…]258 peptide of ScALS with Lys251 and Asp252 (equivalent to Lys310 and Asp311 in AfALS) serving as the most likely attachment sites (Figure S7).
# Biomek FX, Beckman Coulter Fullerton CA) were used to conduct serial dilutions and liquid […]
# Solutions of 1 were added in an 11 point 2x serial dilution in DMSO with a maximum tested concentration of 32 μg/ml in the culture medium. Drug solution was added at 1% v/v into 200 μl […]
# After digestion, the peptide mixture was immediately analysed by LC-MS/MS using a Waters I-class UPLC equipped with an ACQUITY UPLC BEH C18 column (2.1x50 mm, 1.7 µm, Waters) at 50 °C coupled to a Waters Synapt G2Si MS. […]
# [1] = design: method as in PMID 41148120; settings: another study; cited from earlier work
# physchem = settings: aqueous with cosolvent or surfactant or cyclodextrin, kinetic from dmso stock
# A. fumigatus = experiment: Inhibition of A. fumigatus growth; format: cell-based; settings: Aspergillus fumigatus
# S. cerevisiae ALS = target: T2, S. cerevisiae ALS (Saccharomyces cerevisiae, UniProt P07342); experiment: Kinetic characterization: IC50 vs concentration of active ALS; format: biochemical; settings: IC50 equal to half the concentration of active ALS
# T2 construct: made in house; host or cells: E. coli BL21 (DE3), pET28a-ScILV2
# T2 sequence (P07342 58-687): as above
# Chain of A. fumigatus ALS (Q4WXQ3 entry or part of it): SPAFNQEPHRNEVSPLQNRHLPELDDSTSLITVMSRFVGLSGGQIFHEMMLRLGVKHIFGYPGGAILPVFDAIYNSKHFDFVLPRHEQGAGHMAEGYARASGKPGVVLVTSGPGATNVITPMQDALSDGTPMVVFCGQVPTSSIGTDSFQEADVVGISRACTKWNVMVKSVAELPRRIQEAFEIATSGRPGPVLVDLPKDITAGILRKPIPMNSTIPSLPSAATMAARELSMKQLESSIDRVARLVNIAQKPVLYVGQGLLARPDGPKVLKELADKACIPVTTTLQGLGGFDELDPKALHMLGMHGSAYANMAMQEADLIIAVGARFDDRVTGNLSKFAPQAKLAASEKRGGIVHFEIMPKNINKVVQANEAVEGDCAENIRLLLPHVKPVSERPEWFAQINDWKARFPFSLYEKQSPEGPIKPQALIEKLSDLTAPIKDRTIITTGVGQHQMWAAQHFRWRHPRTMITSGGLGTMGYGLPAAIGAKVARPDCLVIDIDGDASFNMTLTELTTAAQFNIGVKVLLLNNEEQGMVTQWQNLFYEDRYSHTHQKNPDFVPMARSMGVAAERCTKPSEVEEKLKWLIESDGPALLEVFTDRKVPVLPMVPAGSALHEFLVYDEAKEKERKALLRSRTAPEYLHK
structure (smiles),measurement,setting,value
CCCC1C(C)=CC2CC=CC3(C)C2C1C(=O)C31C(=O)NC(CCCO)C1=O (stereo not shown) [compound 1],IC50,A. fumigatus ALS,0.049 ± 0.008 µM
same,covalent modification of ScALS (intact mass shift),ScALS,mass shifts consistent with covalent addition
same,herbicidal activity,[1],modest herbicidal activity
same,solubility kinetic,physchem,260 µM
same,EC50,A. fumigatus; read-out: A. fumigatus growth inhibition EC50 (Figure 4A),0.7 ± 0.5 µM
same,IC50,A. fumigatus; read-out: A. fumigatus growth inhibition IC50,0.7 µM
same,binding kinetics (IC50 vs concentration of active ALS),S. cerevisiae ALS,tight-binding kinetics
